Reference: the CheMixHub viscosity set
“And” between values parts separate entries of the source, which are not always exact repeats. Equal entries are not always repeated.

Assay: xn = mol fraction of the nth substance listed

CCOC(=O)CCl + Clc1ccccc1
viscosity [mPa·s], 101.3 kPa
Conditions | x1 = 0.1064 | x1 = 0.2055 | x1 = 0.3 | x1 = 0.3972 | x1 = 0.5005 | x1 = 0.5976 | x1 = 0.6985 | x1 = 0.7953 | x1 = 0.8963
298.15 K | 0.799 | 0.828 | 0.858 | 0.889 | 0.925 | 0.959 | 0.996 | 1.031 | 1.064
303.15 K | 0.752 | 0.778 | 0.804 | 0.834 | 0.865 | 0.895 | 0.927 | 0.959 | 0.986
308.15 K | 0.706 | 0.728 | 0.751 | 0.776 | 0.804 | 0.831 | 0.858 | 0.885 | 0.91

CCOC(=O)CCl + N#CCc1ccccc1
Conditions | viscosity [mPa·s]
308.15 K, 101 kPa, x2 = 0.3793 | 1.155

CCCCOCCO + NCCO
viscosity [mPa·s]
Conditions | 293.15 K | 298.15 K | 303.15 K | 308.15 K | 313.15 K | 318.15 K | 323.15 K
101 kPa, x2 = 0.177 | 4.615 | 3.961 | 3.431 | 2.994 | 2.629 | 2.325 | 2.07
101 kPa, x2 = 0.453 | 8.081 | 6.718 | 5.65 | 4.799 | 4.115 | 3.559 | 3.101
101 kPa, x2 = 0.659 | 12.25 | 9.951 | 8.19 | 6.823 | 5.747 | 4.888 | 4.197
101 kPa, x2 = 0.819 | 16.81 | 13.39 | 10.84 | 8.898 | 7.395 | 6.212 | 5.271
101 kPa, x2 = 0.946 | 21.65 | 17.02 | 13.6 | 11.03 | 9.061 | 7.538 | 6.342
101.3 kPa, x2 = 0.457 | 8.08 | 6.72 | 5.65 | 4.8 | 4.11 | 3.56 | 3.1
101.3 kPa, x2 = 0.664 | 12.25 | 9.95 | 8.19 | 6.82 | 5.75 | 4.89 | 4.2

CCCCNCCO + O
100 kPa, x2 = 0.62
Conditions | viscosity [mPa·s]
293.15 K | 29
303.15 K | 16.7
313.15 K | 10.3
323.15 K | 6.73

CCOS(=O)(=O)[O-].CC[N+](CC)=C(N(C)C)N(C)C + O
viscosity [mPa·s], 100 kPa
Conditions | x1 = 0.0999 | x1 = 0.2003 | x1 = 0.3005 | x1 = 0.4004 | x1 = 0.4989 | x1 = 0.6001 | x1 = 0.7 | x1 = 0.801 | x1 = 0.8982
293.15 K | 12.38 | 25.31 | 39.06 | 53.18 | 68.18 | 85.88 | 107 | 132.6 | 160.6
298.15 K | 10.01 | 19.81 | 29.97 | 40.42 | 51.48 | 64.33 | 79.13 | 97.08 | 116.9
303.15 K | 8.224 | 15.93 | 23.79 | 31.86 | 40.31 | 49.98 | 60.7 | 73.9 | 88.11
308.15 K | 6.765 | 12.88 | 19.09 | 25.43 | 32.02 | 39.28 | 47.26 | 57.08 | 67.41
313.15 K | 5.628 | 10.63 | 15.72 | 20.82 | 26.05 | 31.62 | 37.7 | 45.18 | 53.08
318.15 K | 4.66 | 8.802 | 13.04 | 17.16 | 21.39 | 25.68 | 30.35 | 36.2 | 42.47
323.15 K | 3.828 | 7.374 | 10.99 | 14.3 | 17.61 | 21.15 | 24.97 | 29.66 | 34.73

CC[NH+](C)CC.[Br-] + O
viscosity [mPa·s], 100 kPa
Conditions | 298.15 K | 303.15 K | 308.15 K | 313.15 K | 318.15 K | 323.15 K
x1 = 0.016 | 1.149 | 1.026 | 0.925 | 0.841 | 0.771 | 0.712
x1 = 0.0229 | 1.243 | 1.107 | 0.996 | 0.903 | 0.825 | 0.759
x1 = 0.0355 | 1.458 | 1.295 | 1.162 | 1.051 | 0.955 | 0.873
x1 = 0.0793 | 2.422 | 2.124 | 1.882 | 1.681 | 1.513 | 1.368
x1 = 0.0986 | 3.011 | 2.633 | 2.318 | 2.061 | 1.843 | 1.658
x1 = 0.1267 | 4.05 | 3.504 | 3.07 | 2.707 | 2.389 | 2.142
x1 = 0.1508 | 5.154 | 4.438 | 3.862 | 3.379 | 2.988 | 2.658
x1 = 0.1806 | 6.655 | 5.646 | 4.861 | 4.22 | 3.695 | 3.267
x1 = 0.2148 | 9.109 | 7.787 | 6.643 | 5.74 | 5.002 | 4.39
x1 = 0.2422 | 11.37 | 9.636 | 8.251 | 7.129 | 6.196 | 5.432
x1 = 0.2866 | 15.38 | 12.8 | 10.79 | 9.194 | 7.919 | 6.897
x1 = 0.3332 | 21.46 | 17.54 | 14.61 | 12.29 | 10.49 | 9.032
x1 = 0.4014 | 33.72 | 26.93 | 21.98 | 18.17 | 15.2 | 12.89

C[N+](C)(C)C.[OH-] + O
viscosity [mPa·s], 101 kPa
Conditions | x1 = 0.00504 | x1 = 0.0103 | x1 = 0.02149 | x1 = 0.0337 | x1 = 0.04708 | x1 = 0.06181 | x1 = 0.07809
298.15 K | 0.9677 | 1.119 | 1.278 | 1.627 | 1.978 | 3.087 | 4.216
303.15 K | 0.8674 | 1.007 | 1.148 | 1.39 | 1.751 | 2.66 | 3.571
313.15 K | 0.7118 | 0.818 | 0.9314 | 1.158 | 1.399 | 2.031 | 2.665
323.15 K | 0.5982 | 0.678 | 0.7738 | 0.971 | 1.148 | 1.587 | 2.067

NCC(=O)NCC(=O)NCC(=O)NCC(=O)O + O
viscosity [mPa·s], 101 kPa
Conditions | x1 = 9.96e-05 | x1 = 0.000119 | x1 = 0.0002046 | x1 = 0.0002554 | x1 = 0.0003681 | x1 = 0.0004221 | x1 = 0.0005133
298.15 K | 0.893 | 0.894 | 0.8971 | 0.8987 | 0.9022 | 0.9037 | 0.9045
308.15 K | 0.7219 | 0.7227 | 0.7246 | 0.7261 | 0.7289 | 0.7304 | 0.7337
318.15 K | 0.5985 | 0.5992 | 0.6011 | 0.6019 | 0.6045 | 0.606 | 0.6079

O=P([O-])([O-])[O-].[H+].[K+].[K+] + O
viscosity [mPa·s], 101 kPa
Conditions | x1 = 0.0018 | x1 = 0.0054 | x1 = 0.0089 | x1 = 0.012 | x1 = 0.016
298.15 K | 0.931 | 1.001 | 1.091 | 1.203 | 1.329
303.15 K | 0.8465 | 0.9207 | 0.9963 | – | 1.204
308.15 K | 0.7552 | 0.814 | 0.8844 | 0.9818 | 1.081

[Cl-].[Cl-].[Mg+2] + O
viscosity
Conditions | 293.15 K | 298.15 K | 303.15 K | 308.15 K | 318.15 K
101 kPa, x1 = 0.0944 | – | 13.8 mPa·s | – | – | –
101.3 kPa, x1 = 0.0009 | 1.025 mPa·s | 0.911 mPa·s | 0.8162 mPa·s | 0.7364 mPa·s | 0.6104 mPa·s
101.3 kPa, x1 = 0.0018 | 1.046 mPa·s | 0.9296 mPa·s and 0.936 mPa·s | 0.8329 mPa·s | 0.7517 mPa·s and 0.759 mPa·s | 0.629 mPa·s
101.3 kPa, x1 = 0.0045 | – | 0.988 mPa·s | – | 0.798 mPa·s | 0.662 mPa·s
101.3 kPa, x1 = 0.0089 | – | 1.075 mPa·s | – | 0.867 mPa·s | 0.72 mPa·s
101.3 kPa, x1 = 0.00893 | 1.219 mPa·s | 1.085 mPa·s | 0.9729 mPa·s | 0.8788 mPa·s | 0.7293 mPa·s
101.3 kPa, x1 = 0.0177 | 1.475 mPa·s | 1.314 mPa·s | 1.179 mPa·s | 1.065 mPa·s | 0.8849 mPa·s
101.3 kPa, x1 = 0.03478 | 2.199 mPa·s | 1.95 mPa·s | 1.747 mPa·s | 1.574 mPa·s | 1.302 mPa·s
101.3 kPa, x1 = 0.05127 | 3.332 mPa·s | 2.937 mPa·s | 2.616 mPa·s | 2.346 mPa·s | 1.926 mPa·s
101.3 kPa, x1 = 0.06722 | 5.271 mPa·s | 4.603 mPa·s | 4.064 mPa·s | 3.615 mPa·s | 2.926 mPa·s
101.3 kPa, x1 = 0.08263 | 9.001 mPa·s | 7.752 mPa·s | 6.761 mPa·s | 5.951 mPa·s | 4.726 mPa·s
